Test results taken from patent publication US7119077B1, “Multimeric forms of members of the steroid/thyroid superfamily of receptors with the ultraspiracle receptor” (The Salk Institute for Biological Studies, priority 1990, dated 2006).

Tests used:
GEcR/usp [1] = biological target: T1, GEcR/usp (UniProt P04150+P34021, C431Y/E427R/G434N/G439E/K419E/P331L/P416R/S425G/S440G/V435A/V443G); assay: Cotransfection CAT reporter assay with GEcR (GR N-terminal domain fused to EcR) and usp in CV1 cells; format: cell-based, Drosophila; settings: CV1 cells transfected with GEcR alone
T1 construct: expressed in transfected cells; host or cells: CV1 monkey kidney cells
T1 sequence (P04150+P34021 with tags, fused parts or gaps P04150:P416R/P04150:K419E/P04150:S425G/P04150:E427R/P04150:C431Y/P04150:G434N/P04150:V435A/P04150:G439E/P04150:S440G/P04150:V443G/P34021:P331L): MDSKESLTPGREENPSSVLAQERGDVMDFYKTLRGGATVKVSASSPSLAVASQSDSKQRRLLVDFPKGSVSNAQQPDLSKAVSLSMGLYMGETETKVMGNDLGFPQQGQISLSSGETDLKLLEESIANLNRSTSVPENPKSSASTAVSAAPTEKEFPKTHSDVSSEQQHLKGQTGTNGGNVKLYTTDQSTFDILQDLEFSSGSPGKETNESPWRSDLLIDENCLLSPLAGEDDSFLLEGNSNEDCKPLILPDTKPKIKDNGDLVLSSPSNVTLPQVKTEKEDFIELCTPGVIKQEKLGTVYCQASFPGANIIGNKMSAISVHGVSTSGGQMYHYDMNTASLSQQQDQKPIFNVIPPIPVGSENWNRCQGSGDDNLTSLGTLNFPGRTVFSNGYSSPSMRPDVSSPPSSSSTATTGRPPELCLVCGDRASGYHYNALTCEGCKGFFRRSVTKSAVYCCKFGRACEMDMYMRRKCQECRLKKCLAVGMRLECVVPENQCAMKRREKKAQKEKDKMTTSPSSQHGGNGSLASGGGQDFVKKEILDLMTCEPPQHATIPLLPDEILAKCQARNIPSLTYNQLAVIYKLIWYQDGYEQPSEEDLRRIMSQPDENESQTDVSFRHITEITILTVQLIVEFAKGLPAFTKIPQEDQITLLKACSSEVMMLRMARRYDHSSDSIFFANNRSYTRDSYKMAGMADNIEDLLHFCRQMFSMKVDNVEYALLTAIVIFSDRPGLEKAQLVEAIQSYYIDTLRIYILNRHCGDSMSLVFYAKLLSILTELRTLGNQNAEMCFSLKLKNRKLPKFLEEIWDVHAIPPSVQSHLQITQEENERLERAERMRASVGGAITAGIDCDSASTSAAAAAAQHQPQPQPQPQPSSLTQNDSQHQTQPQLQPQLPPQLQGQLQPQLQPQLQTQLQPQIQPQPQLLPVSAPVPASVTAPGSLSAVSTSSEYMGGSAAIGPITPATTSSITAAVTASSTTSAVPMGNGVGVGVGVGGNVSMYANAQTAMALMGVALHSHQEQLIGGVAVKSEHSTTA
From the text: (§1) GEcR was constructed by ligation of a NotI/BamHI fragment containing the DNA and hormone binding domains of a modified EcR cDNA, EcRnx, in place of the DNA and hormone binding domains of the similarly modified glucocorticoid receptor expression construct pRShGRnx [Giguére et al., Nature Vol. 330:624–629 (1987)]. The modified receptor cDNA was constructed using the site-directed mutagenesis procedure of Kunkel, T. A., Proc. Natl. Acad. Sci. USA Vol. 82:[…] (1985) to insert NotI (employing SEQ ID NO:23 as the oligonucleotide template) and XhoI (employing SEQ ID NO:24 as the oligonucleotide template) sites immediately flanking the DNA binding domain. SEQ ID NO:23 is:
(§2) Transfection was performed with calcium-phosphate precipitation method as described previously [Umesono et al., Nature 336:262–264 (1989)]. […] Beta-galactosidase (βGal) activity was measured and a normalized amount of extract was used for CAT assay (Umesono et al. (1989) supra]. The following amount of plasmid DNA was included in the 10 cm plate transfection: 250 ng each of CMX-EcR and RSV-GEcR; 500 ng of CMX-usp; 5 μg ΔMTV-EcRE5-CTA; 5 μg of βGal internal control plasmid CH111 (a derivative of CH110, Promega). The amount of CMX plasmid was kept constant in each transfection by adding CMX-luciferase. PGEM4 was added to bring the total amount of plasmid DNA to 15 μg per plate. […]

GEcR/usp [2] = biological target: T2, GEcR/usp (UniProt P04150+P34021, C431Y/E427R/G434N/G439E/K419E/P331L/P416R/S425G/S440G/V435A/V443G); assay: as above; format: cell-based, Drosophila; settings: CV1 cells cotransfected with GEcR and usp expression plasmid, EcRE reporter
T2 construct: expressed in transfected cells; host or cells: CV1 monkey kidney cells
T2 sequence (P04150+P34021 with tags, fused parts or gaps P04150:P416R/P04150:K419E/P04150:S425G/P04150:E427R/P04150:C431Y/P04150:G434N/P04150:V435A/P04150:G439E/P04150:S440G/P04150:V443G/P34021:P331L): T1 sequence (P04150+P34021 with tags, fused parts or gaps P04150:P416R/P04150:K419E/P04150:S425G/P04150:E427R/P04150:C431Y/P04150:G434N/P04150:V435A/P04150:G439E/P04150:S440G/P04150:V443G/P34021:P331L)
T2 sequence (P20153 1-508 partner): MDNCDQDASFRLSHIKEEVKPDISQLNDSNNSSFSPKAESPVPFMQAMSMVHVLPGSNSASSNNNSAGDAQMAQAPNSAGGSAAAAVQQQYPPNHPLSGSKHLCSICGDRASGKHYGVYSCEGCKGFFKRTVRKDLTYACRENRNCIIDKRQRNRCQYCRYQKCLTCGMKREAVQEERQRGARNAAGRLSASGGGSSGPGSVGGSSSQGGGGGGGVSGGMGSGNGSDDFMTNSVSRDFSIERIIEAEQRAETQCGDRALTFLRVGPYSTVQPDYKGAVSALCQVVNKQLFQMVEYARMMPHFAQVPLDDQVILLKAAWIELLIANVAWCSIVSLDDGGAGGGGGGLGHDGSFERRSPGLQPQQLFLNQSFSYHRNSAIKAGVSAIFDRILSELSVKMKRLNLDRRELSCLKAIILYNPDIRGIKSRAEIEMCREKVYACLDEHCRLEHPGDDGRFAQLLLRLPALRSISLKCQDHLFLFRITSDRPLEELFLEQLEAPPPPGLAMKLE
From the text: as §1, §2

Substance: 20-Hydroxyecdysone [20-OH-ecdysone]
- ecdysone response (CAT activity) (GEcR/usp [1]): failed to confer ecdysone response
- induction of CAT activity (GEcR/usp [2]): 8–10 fold
